Experimental data taken from patent publication US12150919B2 (priority 2023, dated 2024).

How the values were obtained:
Type in all cases: in vivo, white mice of Swiss strain
[1] = tested on: doxorubicin-induced skin ulcers; test: doxorubicin-induced skin ulcers in white mice: ulcer area and macroscopic state
Description: (§1) Research indicators during burn treatment including: (A) macromorphological index, (B) quantification of hydroxyproline concentration in damaged tissue, and (C) micromorphic index; wherein: • (A) macromorphological index: • Injury status at the burn: swelling, heat, redness, edema observed by eye and recorded by digital camera; • Measure the burn area at 7, 14, and 21 days after causing the burn.
Evaluation of the scar healing effect of the composition 100 and composition 200 in experiments. The model was based on previous studies of doxorubicin-induced skin ulcers in white mice of Swiss strain, both breeds, healthy, weight 30-35 g. White mice of both breeds of both breeds were randomly divided into 5 lots, each batch of 10 animals as follows: • Lot 1: Intradermal injection of physiological saline, no applying DMSO/composition 100/composition 200; • Lot 2: Intradermal injection of doxorubicin 1 mg/0.5 ml, to heal the ulcer naturally; • Lot 3: Intradermal injection of doxorubicin 1 mg/0.5 ml, for ulcer progression for 7 days. Then, drop 0.1 ml of DMSO on the ulcerated area, 2 times a day, use within 21 days; • Lot 4: Intradermal injection of doxorubicin 1 mg/0.5 ml, for ulcer progression for 7 days. Then, apply the composition 100 with dose of 0.1 ml/ulcer/time, 2 times/day, used for 21 days; and • Lot 5: Intradermal injection of doxorubicin 1 mg/0.5 ml, for ulcer progression for 7 days. Then, apply the composition 200 with dose of 0.1 ml/ulcer/time, with a frequency of twice daily, and used for 21 days.
(§2) Research indicators during scar healing including: (A) macromorphological index, (B) quantification of hydroxyproline concentration in damaged tissue, and (C) micromorphic index; all was samed as the burn treatment research experimental.

[2] = tested on: doxorubicin-induced skin ulcers; test: hydroxyproline concentration in skin of mice with doxorubicin-induced ulcers; conditions: doxorubicin-induced skin ulcer model; at the end of the study (21 days of application)
Description: as §1
(§3) Evaluation of the scar healing effect of the composition 100 and composition 200 in experiments. The model was based on previous studies of doxorubicin-induced skin ulcers in white mice of Swiss strain, both breeds, healthy, weight 30-35 g. White mice of both breeds of both breeds were randomly divided into 5 lots, each batch of 10 animals as follows: • Lot 1: Intradermal injection of physiological saline, no applying DMSO/composition 100/composition 200; • Lot 2: Intradermal injection of doxorubicin 1 mg/0.5 ml, to heal the ulcer naturally; • Lot 3: Intradermal injection of doxorubicin 1 mg/0.5 ml, for ulcer progression for 7 days. […]
as §2

[3] = tested on: doxorubicin-induced skin ulcers; test: micromorphic index of the skin at the ulcer; conditions: mice
Description: as §1, §3, §2

C[S+](C)[O-] [DMSO, dimethyl sulfoxide]
Area of skin ulcers After 7 days (x ± SD) ([1]; 0.1 ml on ulcer 2 times a day, after 7 days): 50.13 ± 12.55 mm^2
Area of skin ulcers After 14 days Median (quartile) ([1]; 0.1 ml on ulcer 2 times a day, after 14 days, median): 7.13 mm^2
Area of skin ulcers After 21 days Median (quartile) ([1]; 0.1 ml on ulcer 2 times a day, after 21 days, median): 0 mm^2
macroscopic state of the ulcerated skin area ([1]; at the end of the study): significantly reduced and almost completely healed skin ulcers
Area of skin ulcers Before applied (x ± SD) ([1]; before applied (baseline)): 75.71 ± 14.02 mm^2
Hydroxyproline concentrations in mouse skin (x ± SD) [2]: 15.04 ± 2.35 mg/g skin
micromorphic images of the skin at the ulcer [3]: the skin has regenerated to form the epidermis, no formation of skin-dependent glands, less blood vessels
